Measurements published in ChEMBL document CHEMBL4622878, “Cytotoxic Activity of Germacrane-Type Sesquiterpene Lactones from Dimerostemma aspilioides” (J Nat Prod, 2020).
Calls of active or inactive are those of the source. The calls are words filed in the database; no cut-off is given here.

What was measured:
K562 [1] = test: Cytotoxicity against human K562 cells after 48 hrs by MTT assay; format: functional, cell-based; conditions: K562, 48 h
ADR5000 cell line = test: Cytotoxicity against human CEM/ADR5000 cells after 48 hrs by MTT assay; format: functional, cell-based; conditions: ADR5000, 48 h
CCRF-CEM = test: Cytotoxicity against human CCRF-CEM cells after 48 hrs by MTT assay; format: functional, cell-based
K562-Lucena 1 [2] = test: Cytotoxicity against human K562-Lucena 1 cells after 48 hrs by MTT assay; format: functional, cell-based; conditions: K562-Lucena 1, 48 h
K562 [3] = test: Induction of apoptosis in human K562 cells assessed as viable cells at 2 mM after 48 hrs by Annexin V-FITC/PI double staining based flow cytometry analysis (Rvb =97.8%); format: functional; conditions: K562, 48 h, read-out: Activity
K562-Lucena 1 [4] = test: Induction of morphological changes in human K562-Lucena 1 cells assessed as appearance of apoptotic bodies at 2 mM incubated for 48 hrs by DAPI staining based fluorescence microscopy; format: functional, cell-based
K562-Lucena 1 [5] = test: Induction of cell cycle arrest in human K562-Lucena 1 cells assessed as late apoptotic cells at 2 mM after 48 hrs by propidium iodide staining based flow cytometric analysis (reference value: 3.23%); format: functional
K562 [6] = test: Induction of apoptosis in human K562 cells assessed as early apoptotic cells at 2 mM after 48 hrs by Annexin V-FITC/PI double staining based flow cytometry analysis (reference value: 1.67%); format: functional
K562 [7] = test: Induction of morphological changes in human K562 cells assessed as appearance of condensed chromatin at 2 mM incubated for 48 hrs by DAPI staining based fluorescence microscopy; format: functional, cell-based
K562 [8] = test: Induction of apoptosis in human K562 cells assessed as necrotic cells at 2 mM after 48 hrs by Annexin V-FITC/PI double staining based flow cytometry analysis (reference value: 0.13%); format: functional
K562-Lucena 1 [9] = test: Induction of morphological changes in human K562-Lucena 1 cells assessed as appearance of condensed chromatin at 2 mM incubated for 48 hrs by DAPI staining based fluorescence microscopy; format: functional, cell-based
K562-Lucena 1 [10] = test: Induction of cell cycle arrest in human K562-Lucena 1 cells assessed as necrotic cells at 2 mM after 24 hrs by propidium iodide staining based flow cytometric analysis (reference value: 1.03%); format: functional
K562-Lucena 1 [11] = test: Induction of cell cycle arrest in human K562-Lucena 1 cells assessed as viable cells at 2 mM after 24 hrs by propidium iodide staining based flow cytometric analysis (reference value: 88%); format: functional; conditions: K562-Lucena 1, 24 h, read-out: Activity
K562-Lucena 1 [12] = test: Induction of cell cycle arrest in human K562-Lucena 1 cells assessed as early apoptotic cells at 2 mM after 24 hrs by propidium iodide staining based flow cytometric analysis (reference value: 7.79%); format: functional
K562 [13] = test: Induction of apoptosis in human K562 cells assessed as early apoptotic cells at 2 mM after 24 hrs by Annexin V-FITC/PI double staining based flow cytometry analysis (reference value: 2.76%); format: functional
K562 [14] = test: Induction of apoptosis in human K562 cells assessed as late apoptotic cells at 2 mM after 24 hrs by Annexin V-FITC/PI double staining based flow cytometry analysis (reference value: 0.79%); format: functional
K562 [15] = test: Induction of apoptosis in human K562 cells assessed as viable cells at 2 mM after 24 hrs by Annexin V-FITC/PI double staining based flow cytometry analysis (Rvb =96.4%); format: functional; conditions: K562, 24 h, read-out: Activity
K562-Lucena 1 [16] = test: Induction of DNA fragmentation in human K562-Lucena 1 cells at 2 mM incubated for 48 hrs by DAPI staining based fluorescence microscopy; format: functional, cell-based
K562-Lucena 1 [17] = test: Induction of cell cycle arrest in human K562-Lucena 1 cells assessed as late apoptotic cells at 2 mM after 24 hrs by propidium iodide staining based flow cytometric analysis (reference value: 3.15%); format: functional
K562-Lucena 1 [18] = test: Induction of cell cycle arrest in human K562-Lucena 1 cells assessed as viable cells at 2 mM after 48 hrs by propidium iodide staining based flow cytometric analysis (reference value: 87.1%); format: functional; conditions: K562-Lucena 1, 48 h, read-out: Activity
K562 [19] = test: Induction of DNA fragmentation in human K562 cells at 2 mM incubated for 48 hrs by DAPI staining based fluorescence microscopy; format: functional, cell-based
K562 [20] = test: Induction of apoptosis in human K562 cells assessed as necrotic cells at 2 mM after 24 hrs by Annexin V-FITC/PI double staining based flow cytometry analysis (reference value: 0.085%); format: functional
K562 [21] = test: Induction of morphological changes in human K562 cells assessed as appearance of apoptotic bodies at 2 mM incubated for 48 hrs by DAPI staining based fluorescence microscopy; format: functional, cell-based
K562-Lucena 1 [22] = test: Induction of cell cycle arrest in human K562-Lucena 1 cells assessed as early apoptotic cells at 2 mM after 48 hrs by propidium iodide staining based flow cytometric analysis (reference value: 7.57%); format: functional
K562-Lucena 1 [23] = test: Induction of cell cycle arrest in human K562-Lucena 1 cells assessed as necrotic cells at 2 mM after 48 hrs by propidium iodide staining based flow cytometric analysis (reference value: 2.15%); format: functional
K562 [24] = test: Induction of apoptosis in human K562 cells assessed as late apoptotic cells at 2 mM after 48 hrs by Annexin V-FITC/PI double staining based flow cytometry analysis (reference value: 0.41%); format: functional

For `C=C(CO)C(=O)O[C@H]1C/C(COC(C)=O)=C/CC/C(C)=C/[C@H]2OC(=O)C(=C)[C@H]12`, the IC50 (K562 [1]) was greater than 10 µM, the IC50 (ADR5000 cell line) was 7.7 µM and the IC50 (CCRF-CEM) was 3.5 µM. For the same compound, the IC50 (K562-Lucena 1 [2]) was greater than 10 µM.

For `NC(=O)NO` [HYDROXYUREA], the viability at 2000 µM (K562 [3]) was 70.5%, the Activity (K562-Lucena 1 [4]) was “Active” and the Activity (K562-Lucena 1 [5]) was 12.2%. The Activity (K562 [6]) was 21.9%, the Activity (K562 [7]) was “Active” and the Activity (K562 [8]) was 1.5%. The Activity (K562-Lucena 1 [9]) was “Active”, the Activity (K562-Lucena 1 [10]) was 1.99% and the viability at 2000 µM (K562-Lucena 1 [11]) was 77.7%. It also gave an Activity (K562-Lucena 1 [12]) of 15.3%, an Activity (K562 [13]) of 2.82% and an Activity (K562 [14]) of 0.45%. For the same compound, the viability at 2000 µM (K562 [15]) was 96%, the Activity (K562-Lucena 1 [16]) was “Active” and the Activity (K562-Lucena 1 [17]) was 5.06%. For the same compound, the viability at 2000 µM (K562-Lucena 1 [18]) was 60.1%, the Activity (K562 [19]) was “Active” and the Activity (K562 [20]) was 0.75%. The Activity (K562 [21]) was “Active”, the Activity (K562-Lucena 1 [22]) was 22.1% and the Activity (K562-Lucena 1 [23]) was 5.57%. For the same compound, the Activity (K562 [24]) was 6.06%.
